For data set [1] the following is noted: cited from earlier work.
Data set [2] relates to amphibians. The settings on record: cited from earlier work.
The subject of data set [3] is fish. The note with it: cited from earlier work.
In data set [4] the test system is mollusks. The note with it: cited from earlier work.
Data set [5] deals with zooplankton. The settings on record: cited from earlier work.
The test system of data set [6] is crustaceans. The settings on record: cited from earlier work.
Data set [7] concerns insects. The note with it: cited from earlier work.
Data set [8] concerns algae. Nature of the data set: Treatment of agricultural-water canal with air-stream-entrained calcium hypochlorite; visual observation of algae. The note with it: per quarter-mile canal section. Type of data set: in vivo. The text has this: The device and method of the present invention were employed to treat a canal, and visual observations of the amount of algae present in the canal before this treatment, and periodically after this treatment, are set forth in Tables 1-3 below. (The visual observations are accurate and realistic evaluations because the visual amount of algae in the canal correlates well to actual biological-debris problems.) This canal is fed from a large water reservoir which has about thirty percent of its surface covered with algae. This canal is therefore continuously being inoculated with algae which enters with the source water. The flow rate of the water when entering the canal is about one hundred eighty cubic feet per second. Due to water usage from the various growers along the canal, this initial water flow rate decreases at points along the canal, and then decreases dramatically over the last mile to about twenty cubic feet per second. This canal is a typical example of one which is in need of treatment to remediate organic debris. Prior to the treatments of this Example 1, this canal was being point treated with acrolein every eight to ten days during the height of the irrigation season to obtain a satisfactory treatment. In this Example 1, the canal was treated three times along substantially its entire length by propelling a calcium hypochlorite-entrained air stream to the water surface and to the sides of the canal from a delivery system suspended off a mobile unit as described above. An operator made visual assessments of the degree of organic debris build-up along the canal and adjusted the concentration of calcium hypochlorite in the air stream accordingly. The pre-treatment and post-treatment conditions of the canal are shown in Tables 1, 2 and 3 below where the visual assessment of organic debris, made at each quarter mile along the length of the canal, are reported at: (a) just before treatment; (b) twelve hours after the treatment; (c) about a week (seven or eight days) after the treatment; and about a week and a half (ten, twelve and ten days, respectively) after treatment. The just before treatment assessment for the second and third treatments set forth in Tables 2 and 3 below are also continued-assessments of the prior treatment (i.e., the T2-b observations in Table 2 are the same as the T1-10d observations in Table 1, and the T3-b observations in Table 3 are the same as the T2-12d observations in Table 2). Further, any relative terms in an observation refer to the prior observation made at the given time; for example, the “slightly larger patches” observation under T1-10d at 0.75 to 1.00 miles in Table 1 below refers to the patches being slightly larger than the patches observed at T1-10d at 0.50 to 0.75 miles, and not to the canal condition observed at T1-7d at 0.75 to 1.00 miles.

In data set [9] the test system is rats. The settings on record: oral; cited from earlier work.

Entries after “also recorded” stand apart in the source; their conditions may differ.

As for `C=CC=O` [Acrolein], in data set [1], the water solubility was 238,000 mg/L. The average acute toxicity result in [2] is “very highly toxic”; in data set [3] it was “highly toxic”; in [4], “highly toxic”; in data set [5] it was “highly toxic”; in data set [6], “moderately toxic”; in data set [7], “moderately toxic”.

For the molecule `[Ca+2].[O-]Cl.[O-]Cl` [calcium hypochlorite], the “Canal Description (visual observation of algae)” value (from here on “Canal Description”) in data set [8] (T1-12 h: 12 hr. after Treatment 1, canal section 2.75 to 3.00 miles) is “Canal visually free of algae”; in data set [8] (T1-12 h: 12 hr. after Treatment 1, canal section 3.25 to 3.50 miles), “Canal is visually free of algae”; in data set [8] (T1-12 h: 12 hr. after Treatment 1, canal section 4.75 to 5.00 miles), “Small amounts of discolored/dying algae are adhering to the bottom of the canal”; in [8] (T1-12 h: 12 hr. after Treatment 1, canal section 5.50 to 5.75 miles) it was “Small amounts of discolored/dying algae are adhering to bottom of the canal”; in data set [8] (T1-12 h: 12 hr. after Treatment 1, canal section 5.75 to 6.00 miles), “Small amounts of discolored/dying algae are adhering to the bottom and sides of”; in data set [8] (T1-7 d: 7 days after Treatment 1, canal section 0.00 to 0.25 miles), “Clear, visually free of algae”. For the same molecule, the “Canal Description” value was “Slight amount of algae is growing on the water surface of the canal” in data set [8] (T1-7 d: 7 days after Treatment 1, canal section 2.75 to 3.00 miles); “Slight amount of algae is growing on the water surface and along the sides of” in data set [8] (T1-7 d: 7 days after Treatment 1, canal section 3.25 to 3.50 miles); “Slight amount of is algae is growing on the water surface and along the sides” in data set [8] (T1-7 d: 7 days after Treatment 1, canal section 5.25 to 5.50 miles); “Slight amount of algae is growing on the water surface and along the sides” in [8] (T1-7 d: 7 days after Treatment 1, canal section 5.50 to 5.75 miles); “Small amount of algae is growing on the water surface. Slight amount of algae” in data set [8] (T1-7 d: 7 days after Treatment 1, canal section 6.50 to 6.75 miles); “Small amount of algae is growing on the water surface. Small amount of algae” in data set [8] (T1-7 d: 7 days after Treatment 1, canal section 6.75 to 7.00 miles). The “Canal Description” value in data set [8] (T1-10 d: 10 days after Treatment 1) is “Slight amount of algae is growing along the sides of the canal; also recorded: Slight amount of algae is growing on the water surface and along the sides of; also recorded: Small amount of algae is growing on the water surface and along the sides of; also recorded: Slightly larger patches of algae are growing on the water surface and along”; in data set [8] (T2-12 h: 12 hr. after Treatment 2) it was “Canal visually free of algae; also recorded: Small amounts of discolored/dying algae are adhering to bottom of the canal; also recorded: Small amounts of discolored/dying algae are adhering to the bottom and sides of”; in [8] (T2-8 d: 8 days after Treatment 2, canal section 0.00 to 0.25 miles), “Clear, visually free of algae”; in [8] (T2-8 d: 8 days after Treatment 2, canal section 3.00 to 3.25 miles) it was “Slight amount of algae is growing on the water surface of the canal”; in data set [8] (T2-8 d: 8 days after Treatment 2, canal section 4.00 to 4.25 miles), “Slight amount of algae is growing on the water surface and along the sides of”; in data set [8] (T2-8 d: 8 days after Treatment 2, canal section 5.50 to 5.75 miles), “Slight amount of algae is growing on the water surface and along the sides”. Further, the “Canal Description” value is “Small amount of algae is growing on the water surface. The amount of algae” in [8] (T2-8 d: 8 days after Treatment 2, canal section 6.50 to 6.75 miles); “Small amount of algae on the water surface. The amount of algae on the sides” in [8] (T2-8 d: 8 days after Treatment 2, canal section 6.75 to 7.00 miles); “Very slight amount of algae is growing along the sides of the canal; also recorded: Slight amount of algae is growing along the sides of the canal; also recorded: Slight amount of algae is growing on the water surface and along the sides; also recorded: Slight amount of algae is growing on water surface and along the sides and; also recorded: Slightly more algae is growing on water surface and along the sides of the; also recorded: Slightly more algae is growing on the water surface and along the sides of” in [8] (T2-12 d: 12 days after Treatment 2); “Slight amount of algae is growing on the water surface and along the sides of the; also recorded: Slightly larger patches of algae are growing on the water surface and along the sides; also recorded: Slight amount of algae is growing along the sides of the canal” in data set [8] (T2-b: just before Treatment 2, 10 days after Treatment 1); “Canal visually free of algae” in data set [8] (T3-12 h: 12 hr. after Treatment 3, canal section 3.25 to 3.50 miles); “Small amounts of discolored/dying algae are present” in data set [8] (T3-12 h: 12 hr. after Treatment 3, canal section 5.00 to 5.25 miles). The “Canal Description” value in data set [8] (T3-12 h: 12 hr. after Treatment 3, canal section 5.75 to 6.00 miles) is “Small amounts of discolored/dying algae are adhering to the bottom and sides of”; in data set [8] (T3-b: just before Treatment 3, 12 days after Treatment 2), “Slight amount of algae is growing along the sides of the canal; also recorded: Slightly more algae is growing on the water surface and along the sides of the canal; also recorded: More algae is growing on the water surface of the canal. Small amount of algae is; also recorded: Very slight amount of algae is growing along the sides of the canal; also recorded: More algae is growing on the water surface of the canal. More algae is growing up”. In addition, the LD50 in [9] is recorded as 850 gm/100 kg.

These data come from patent US8480909B2, “Method for treatment of canals” (priority 2009, dated 2013).
